Counter-ions that a name gives are not always drawn.
Legend:
[1] = tested on: PD1 signal sequence plus 10 amino acids fused to Gaussia Luciferase (PD1-ss+10aa/Gaussia Luciferase); test: Dox Induced PD1-ss-Gluc Assay; format: cell-based; conditions: 24 hr, Dox inducible, 293FRT/TO cells; read-out: 24 hr Dox Inducible PD1ssGluc 293FRT/TO: Mean IC50
Procedure, shortened: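 Compound dilutions in DMSO/media containing doxycycline were applied to a stable, inducible 293 T-REx line carrying the luciferase fusion, then incubated at 37 °C, 5% CO2. Where stereochemistry is not drawn, values relate to isomer mixtures.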

[2] = tested on: full length TNFα (amino acids 1-233) fused to Gaussia Luciferase; test: Dox Induced TNFα-FL-Gluc Assay; format: cell-based; conditions: 24 hr, Dox inducible, 293FRT/TO cells; read-out: 24 hr Dox Inducible TNFaFLGluc 293FRT/TO: Mean IC50
Procedure, shortened: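 Compounds diluted in DMSO/medium with doxycycline were incubated at 37° C, 5% CO2 with 293 T-REx cells stably carrying a Tet-regulated TNFα(1-233)-Gaussia luciferase construct. Data for structures drawn without stereochemistry refer to stereoisomer mixtures.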

[3] = tested on: multiple myeloma cell line NCl-H929; test: H929 Cell Viability Assay; format: cell-based, human; conditions: Homo sapiens, NCI-H929, 48 h, H929, Celltiter-Glo
Procedure, shortened: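 Viability was determined by CellTiter-Glo luminescence after a 48 h, 37 °C exposure of NCI-H929 cells to serial compound dilutions in medium containing 10% FBS. Where stereochemistry is not shown, values refer to a mix of stereoisomers.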

[4] = tested on: multiple myeloma cell line U266B1; test: U266 Cell Viability Assay; format: cell-based, human; conditions: Homo sapiens, U-266; 48 hr, U266, Celltiter-Glo
Procedure, shortened: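 Viability was measured by CellTiter-Glo luminescence after 48 h compound exposure at 37° C, 5% CO2. The cells were U266B1 multiple myeloma cells grown in RPMI 1640 plus 10% FBS. Where stereochemistry is not shown, values apply to the stereoisomer mixture.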

[5] = In Vitro Microsome Stability Assay (human); format: in vitro ADME; conditions: human liver microsomes, 30 min w/ NADPH
Procedure, shortened: (§1)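 Test article, added from a 0.25 mM DMSO stock, was incubated with liver microsomes (20 mg/mL stock) in 0.1 M potassium phosphate at 37° C, with the reaction started by NADPH. Samples were quenched with acetonitrile containing internal standard at 0 and 30 min and analysed by LC-MS/MS. Values are % remaining at 30 min versus 0 min, using IS-normalised AUC ratios.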

[6] = In Vitro Microsome Stability Assay (mouse); format: in vitro ADME; conditions: mouse liver microsomes, 30 min w/ NADPH
Procedure, shortened: as §1

[7] = In Vitro Microsome Stability Assay (rat); format: in vitro ADME; conditions: rat liver microsomes, 30 min w/ NADPH
Procedure, shortened: as §1

[8] = In Vitro Microsome Stability Assay (monkey); format: in vitro ADME; conditions: monkey liver microsomes, 30 min w/ NADPH
Procedure, shortened: as §1

Structure (SMILES) | IC50 [1] [µM] | IC50 [2] [µM] | EC50 [3] [µM] | EC50 [4] [µM] | Liver Microsome Stability-% Left after 30 min w/ NADPH (%) Human [5] [%] | Liver Microsome Stability-% Left after 30 min w/ NADPH (%) Mouse [6] [%] | Liver Microsome Stability-% Left after 30 min w/ NADPH (%) Rat [7] [%] | Liver Microsome Stability-% Left after 30 min w/ NADPH (%) Monkey [8] [%]
C=C1CN(S(=O)(=O)c2ccc(C)cc2)CCCN(CC2CCCCC2)CCC(C)N(S(=O)(=O)c2ccc(C)cc2)C1 (centres unmarked) [B1, 5-(cyclohexylmethyl)-2-methyl-11-methylene-1,9-ditosyl-1,5,9-triazacyclododecane hydrochloride] | 0.424 | > 25 | > 25 | > 25 | 0.04 | 0.02 | 0.01 | 0.02
C=C1CN(S(=O)(=O)c2ccc(C)cc2)CCCN(CC2CCCCC2)CC(C)CN(S(=O)(=O)c2ccc(C)cc2)C1 (centres unmarked) [B2, 1-(cyclohexylmethyl)-3-methyl-5,9-bis(4-methylbenzenesulfonyl)-7-methylidene-1,5,9-triazacyclododecane] | 1.72 | > 25 | > 25 | > 25 | 0.35 | 0.55 | 1.46 | 0.23
CN(C)c1ccc(S(=O)(=O)N2CCCN(CC3CCCCC3)CCCN(S(=O)(=O)N3CCCCC3)CC2)cc1 [B3, 4-{[8-(cyclohexylmethyl)-4-(piperidine-1-sulfonyl)-1,4,8-triazacycloundecan-1-yl]sulfonyl}-N,N-dimethylaniline] | 7.38 | > 25 | 9.44 | 12.6 | 0.26 | 0.15 | 0.1 | 0.08
CN(C)c1ccc(S(=O)(=O)N2CCCN(CC3CCCCC3)CCCN(S(=O)(=O)N3CCCCC3)C2)cc1 [B4, 4-{[7-(cyclohexylmethyl)-3-(piperidine-1-sulfonyl)-1,3,7-triazecan-1-yl]sulfonyl}-N,N-dimethylaniline] | > 25 | > 25 | > 25 | 16.6 | 12.1 | 2.21 | 2.79 | 1.7
CN(C)c1ccc(S(=O)(=O)N2CCCCN(S(=O)(=O)N3CCC(c4ccccc4)CC3)CCCN(CC3CCCCC3)CCC2)cc1 [B5] | 1.5 | > 25 | > 25 | > 25 | 0.54 | 0.24 | 7.08 | 0.21
CN(C)c1ccc(S(=O)(=O)NCCCN(CCCNS(=O)(=O)N2CCC(c3ccccc3)CC2)CC2CCCCC2)cc1 [B7, N-{3-[(cyclohexylmethyl)(3-{[(4-phenylpiperidin-1-yl)sulfonyl]amino}propyl)amino]propyl}-4-(dimethylamino)benzene-1-sulfonamide] | 6.9 | 24.3 | 6.86 | 7.48 | 0.03 | 1.47 | 0.58 | 0.04
CN(C)c1ccc(S(=O)(=O)N2C/C=C\CN(S(=O)(=O)N3CCC(c4ccccc4)CC3)CCCN(CC3CCCCC3)CCC2)cc1 [B8, 4-{[(11Z)-5-(cyclohexylmethyl)-9-[(4-phenylpiperidin-1-yl)sulfonyl]-1,5,9-triazacyclotridec-11-en-1-yl]sulfonyl}-N,N-dimethylaniline] | > 25 | > 25 | > 25 | > 25 | 22.1 | 17.1 | 23.8 | 15.5

From patent publication US11578055B2, “Triazacyclododecansulfonamide (“TCD”)-based protein secretion inhibitors” (KEZAR LIFE SCIENCES, priority 2018, dated 2023)
